# ChEMBL document CHEMBL5537165, “Hepatitis C: The Story of a Long Journey through First, Second, and Third Generation NS3/4A Peptidomimetic Inhibitors. What Did We Learn?” (J Med Chem, 2024)
# Where “and” joins values, the source holds several entries; their conditions need not be identical. Equal entries are not always repeated.
# Key:
# Hepatitis C virus [1] = assay: Antiviral activity against Hepatitis C virus genotype 1a infected in human Huh-7 cells assessed as reduction in viral infection; type: functional, organism-based, Hepacivirus hominis
# Hepatitis C virus [2] = assay: Antiviral activity against Hepatitis C virus genotype 1b infected in human Huh-7 cells assessed as reduction in viral infection; type: functional, organism-based, Hepacivirus hominis
# [3] = Oral bioavailability in Sprague-Dawley rat at 3 mg/kg by LC-MS/MS analysis; type: ADME, organism-based; details: in vivo
# [4] = Cmax in Sprague-Dawley rat at 3 mg/kg, po and measured upto 24 hrs by LC-MS/MS analysis; type: ADME, organism-based; details: in vivo
# [5] = Half life in Sprague-Dawley rat at 5 mg/kg, po by LC-MS/MS analysis; type: ADME, organism-based; details: in vivo
# [6] = Clearance in Sprague-Dawley rat at 0.5 mg/kg, iv by LC-MS/MS analysis; type: ADME, organism-based; details: in vivo
# [7] = Volume of distribution at steady state in Sprague-Dawley rat at 3 mg/kg, iv measured up to 24 hrs by LC-MS/MS analysis; type: ADME, organism-based; details: in vivo, read-out: Vdss
# [8] = AUC in Sprague-Dawley rat at 5 mg/kg, po measured upto 24 hrs by LC/MS/MS analysis; type: ADME, organism-based; details: in vivo
# [9] = AUC in Beagle dog at 5 mg/kg, po measured upto 24 hrs by LC/MS-MS analysis; type: ADME, organism-based, Canis lupus familiaris; details: in vivo
# [10] = AUC (0 to infinity) in liver to plasma of Sprague-Dawley rat at 3 mg/kg,po; type: ADME, organism-based; details: in vivo
# [11] = target: T1, Non-structural protein 4b (Hepacivirus hominis, UniProt F5B4I0); assay: Inhibition of Hepatitis C virus genotype 1b NS4B
# T1 sequence (F5B4I0 whole entry): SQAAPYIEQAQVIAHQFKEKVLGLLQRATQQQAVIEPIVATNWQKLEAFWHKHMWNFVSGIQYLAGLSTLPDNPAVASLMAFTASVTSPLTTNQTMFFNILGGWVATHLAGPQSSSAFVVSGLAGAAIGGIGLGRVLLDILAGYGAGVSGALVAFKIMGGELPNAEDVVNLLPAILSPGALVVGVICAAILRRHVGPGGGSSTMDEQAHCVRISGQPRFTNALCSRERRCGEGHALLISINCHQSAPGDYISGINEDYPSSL
# [12] = Oral bioavailability in Sprague-Dawley rat; type: ADME, organism-based; details: in vivo
# [13] = Oral bioavailability in Beagle dog at 2 mg/kg; type: ADME, organism-based, Canis lupus familiaris; details: in vivo
# [14] = AUC in Sprague-Dawley rat at 2 mg/kg, po; type: ADME, organism-based; details: in vivo
# [15] = target: T1, Non-structural protein 4b; assay: Binding affinity to Hepatitis C virus genotype 1a NS4B assessed as inhibition constant
# [16] = target: T1, Non-structural protein 4b; assay: Binding affinity to Hepatitis C virus genotype 3a NS4B assessed as inhibition constant
# [17] = target: T1, Non-structural protein 4b; assay: Binding affinity to Hepatitis C virus genotype 1b NS4B assessed as inhibition constant
# [18] = target: T1, Non-structural protein 4b; assay: Inhibition of Hepatitis C virus genotype 3a NS4B
# [19] = target: T1, Non-structural protein 4b; assay: Inhibition of Hepatitis C virus genotype 2b NS4B
# [20] = target: T1, Non-structural protein 4b; assay: Inhibition of Hepatitis C virus genotype 1a NS4B
# [21] = Half life in Beagle dog at 5 mg/kg, po by LC-MS/MS analysis; type: ADME, organism-based, Canis lupus familiaris; details: in vivo
# [22] = target: Hepatitis C virus NS5B RNA-dependent RNA polymerase (Hepatitis C virus, UniProt Q8JXU8); assay: Binding affinity to Hepatitis C virus genotype 2a NS5B polymerase assessed as inhibition constant
# [23] = target: T1, Non-structural protein 4b; assay: Binding affinity to Hepatitis C virus genotype 4a NS4B assessed as inhibition constant
# [24] = target: T1, Non-structural protein 4b; assay: Binding affinity to Hepatitis C virus genotype 6a NS4B assessed as inhibition constant
# [25] = target: T1, Non-structural protein 4b; assay: Inhibition of Hepatitis C virus genotype 4a NS4B
# [26] = target: T1, Non-structural protein 4b; assay: Inhibition of Hepatitis C virus genotype 5a NS4B
# [27] = target: T1, Non-structural protein 4b; assay: Inhibition of Hepatitis C virus genotype 6a NS4B
# Hepatitis C virus [28] = assay: Antiviral activity against HCV assessed as inhibition of RNA replication; type: functional, organism-based, Hepacivirus hominis
# Hepatitis C virus [29] = assay: Antiviral activity against Hepatitis C virus infected in human Huh7.5 cells pretreated […] for 2 hrs followed by viral infection for 1 hrs by plaque assay; type: functional, organism-based, Hepacivirus hominis
# [30] = AUC in Beagle dog at 2 mg/kg, po; type: ADME, organism-based, Canis lupus familiaris; details: in vivo
# [31] = Clearance in Sprague-Dawley rat at 2 mg/kg, iv by LC-MS/MS analysis; type: ADME, organism-based; details: in vivo
# [32] = Clearance in Beagle dog at 2 mg/kg, iv by LC-MS/MS analysis; type: ADME, organism-based, Canis lupus familiaris; details: in vivo
# [33] = target: T1, Non-structural protein 4b; assay: Inhibition of Hepatitis C virus genotype 3a NS4B expressed in Escherichia coli
# SARS-CoV-2 = assay: Antiviral activity against SARS-CoV-2 infected in African green monkey Vero cells assessed as reduction in viral replication measured after 72 hrs by qRT-PCR analysis; type: functional, organism-based; details: Severe acute respiratory syndrome coronavirus 2, Vero
# [34] = target: T1, Non-structural protein 4b; assay: Binding affinity to Hepatitis C virus genotype 2b NS4B assessed as inhibition constant
# RNA = assay: Inhibition of Hepatitis C virus RNA; type: nucleic-acid assay, Hepacivirus hominis
# [35] = Half life in Cynomolgus monkey at 1.0 mg/kg,iv or 1.25 mg/kg, po; type: ADME, organism-based, Macaca fascicularis; details: in vivo
# [36] = Half life in human liver microsomes at 1 uM by LC-MS/MS analysis; type: ADME, Microsome
# [37] = AUC in Sprague-Dawley rat plasma […] at 10 mg/kg, po administered via gavage by LC-MS/MS analysis; type: ADME, organism-based; details: in vivo
# Sequence of Hepatitis C virus NS5B RNA-dependent RNA polymerase (Q8JXU8 whole entry): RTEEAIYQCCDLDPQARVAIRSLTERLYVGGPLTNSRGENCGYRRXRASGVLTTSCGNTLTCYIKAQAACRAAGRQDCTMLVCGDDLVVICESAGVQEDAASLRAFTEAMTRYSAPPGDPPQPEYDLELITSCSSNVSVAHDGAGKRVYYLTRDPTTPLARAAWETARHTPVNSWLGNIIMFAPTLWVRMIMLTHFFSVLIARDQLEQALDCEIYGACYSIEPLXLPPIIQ
smiles,measurement,setting,value
COc1ccc2c(O[C@@H]3C[C@H]4C(=O)N[C@]5(C(=O)NS(=O)(=O)C6CC6)C[C@H]5/C=C\CCCCC[C@H](CC(=O)N5CCCC(F)(F)C5)C(=O)N4C3)cc(-c3nc(C(C)C)cs3)nc2c1C,EC50,Hepatitis C virus [1],0.04 nM
same,EC50,Hepatitis C virus [2],0.7 nM
C=C[C@@H]1C[C@]1(NC(=O)[C@@H]1C[C@@H](Oc2cc(-c3csc(NC(=O)C(C)C)n3)nc3c(Br)c(OC)ccc23)CN1C(=O)[C@@H](NC(=O)OC1CCCC1)C(C)(C)C)C(=O)O,bioavailability,[3],40%
same,Cmax,[4],400 nM
same,half-life,[5],1.2 h
same,clearance,[6],20 mL/min/kg
same,Vd,[7],1.2 L/kg
same,AUC,[8],1.55 µM·h
same,AUC,[9],13 µM·h
same,AUC,[10],40 µM·h
CC(C)(C)[C@@H]1NC(=O)O[C@@H]2CCC[C@H]2OC/C=C/C(F)(F)c2nc3ccccc3nc2O[C@@H]2C[C@@H](C(=O)N[C@]3(C(=O)NS(=O)(=O)C4(C)CC4)C[C@H]3C(F)F)N(C2)C1=O,IC50,[11],8.9 nM
same,bioavailability,[12],90%
same,bioavailability,[13],95%
same,AUC,[14],22 µM·h
same,Ki,[15],0.075 nM
same,Ki,[16],0.96 nM
same,Ki,[17],0.063 nM
same,IC50,[18],7900 nM
same,IC50,[19],3.8 nM
same,IC50,[20],4.4 nM
same,half-life,[5],2.8 h
same,half-life,[21],0.6 h
same,Ki,[22],0.053 nM
same,Ki,[23],0.92 nM and 0.092 nM
same,Ki,[24],0.11 nM
same,IC50,[25],6.1 nM
same,IC50,[26],8.1 nM
same,IC50,[27],11.3 nM
same,EC50,Hepatitis C virus [28],0.24 nM
CCC[C@H](NC(=O)[C@@H]1[C@H]2CCC[C@H]2CN1C(=O)[C@@H](NC(=O)[C@@H](NC(=O)c1cnccn1)C1CCCCC1)C(C)(C)C)C(=O)C(=O)NC1CC1,IC50,[11],354 nM
same,EC50,Hepatitis C virus [29],15 nM
same,bioavailability,[12],25%
same,bioavailability,[13],40.7%
same,AUC,[14],3.34 µM·h
same,AUC,[30],40.7 µM·h
same,clearance,[31],54 mL/min/kg
same,clearance,[32],42 mL/min/kg
CC(C)Oc1ccc(-c2nc(O[C@@H]3C[C@H]4C(=O)N[C@]5(C(=O)NS(=O)(=O)C6(C)CC6)C[C@H]5/C=C\CCCCC[C@H](NC(=O)OC5CCCC5)C(=O)N4C3)c3oc4ccccc4c3n2)cc1,IC50,[11],0.6 nM
same,IC50,[18],600 nM
same,IC50,[20],0.6 nM
same,IC50,[25],0.6 nM
same,IC50,[26],0.6 nM
same,IC50,[27],0.6 nM
same,EC50,[33],1.6 nM
same,EC50,SARS-CoV-2,1.6 nM
CC(C)(C)NC(=O)N[C@H](C(=O)N1C[C@H]2[C@@H]([C@H]1C(=O)NC(CC1CCC1)C(=O)C(N)=O)C2(C)C)C(C)(C)C (stereo partly drawn) [BOCEPREVIR],Ki,[15],6 nM
same,Ki,[34],6 nM
same,Ki,[16],6 nM
COc1cnc(O[C@@H]2C[C@H]3C(=O)N[C@]4(C(=O)NS(=O)(=O)C5CC5)CC4/C=C\CCCCC[C@H](NC(=O)OC(C)(C)C)C(=O)N3C2)c2cc(Cl)ccc12 (stereo partly drawn),IC50,[33],51 nM
Cc1ccc2nc(-c3ccc4nc(-c5ccc(NC(=O)c6cc(C(F)(F)F)cc(C(F)(F)F)c6)cc5)sc4c3)sc2c1S(=O)(=O)O,IC50,RNA,5 nM
C=C[C@@H]1C[C@]1(NC(=O)[C@@H]1C[C@@H](Oc2cc(-c3ccccc3)nc3cc(OC)ccc23)CN1C(=O)[C@@H](CC(=O)N1CCCCC1)C(C)(C)C)C(=O)NS(=O)(=O)C1CC1 [SOVAPREVIR],Ki,[17],0.06 nM
same,IC50,[20],11 nM
same,half-life,[5],> 90 h
same,AUC,[10],> 505 µM·h
same,half-life,[21],115 h
same,half-life,[35],10.4 h
same,half-life at 1 µM,[36],1.77 h
same,AUC,[37],339 µM·h
